The results in this text go back to PubChem BioAssay AID1745844 (Carcinogenic Potency Database (CPDB), 2022).

Structures are written as SMILES. The source made the active and inactive calls. How the calls were made is not given here.

The data set relates to rodent lifetime carcinogenesis bioassay, tumor incidence TD50. In words: chronic cancer bioassays in animals – CPDB, compiled studies (AID 1745844).

By TD50 is commonly meant the 50% point of the dose-response relation for the toxic effect studied.

Turning to `CCOc1ccc(NC(C)=O)cc1N`, the TD50 is 569 mg/kg/day (mouse, strain B6C3F1, females, in feed, site: any site (literature study), lesion: several types, types named in the paper, dosed 78 weeks, study length 93 weeks); 8630 mg/kg/day (mouse, strain B6C3F1, females, in feed, site: lung, lesion: alveolar/bronchiolar adenoma + alveolar/bronchiolar carcinoma, dosed 78 weeks, study length 93 weeks); 1050 mg/kg/day (inactive) (mouse, strain B6C3F1, females, in feed, site: pituitary gland, lesion: adenoma, NOS + carcinoma, NOS + chromophobe adenoma, dosed 78 weeks, study length 93 weeks); 8990 mg/kg/day (mouse, strain B6C3F1, males, in feed, site: liver, lesion: hepatocellular adenoma + hepatocellular carcinoma + neoplastic nodule, dosed 78 weeks, study length 93 weeks); 2070 mg/kg/day (mouse, strain B6C3F1, males, in feed, site: thyroid gland, lesion: adenocarcinoma, NOS + adenoma, NOS + follicular-cell adenoma + follicular-cell carcinoma, dosed 78 weeks, study length 93 weeks); 4020 mg/kg/day (mouse, strain B6C3F1, males, in feed, site: thyroid gland, lesion: adenocarcinoma, NOS + follicular-cell carcinoma, dosed 78 weeks, study length 93 weeks). Besides, the TD50 runs as follows: (mouse, strain B6C3F1, males, in feed, site: thyroid gland, lesion: follicular-cell carcinoma, dosed 78 weeks, study length 93 weeks) 3770 mg/kg/day; (rat, strain Fischer 344, females, in feed, site: adrenal gland, lesion: cortical adenoma + cortical carcinoma, dosed 78 weeks, study length 106 weeks) 415 mg/kg/day (inactive); (rat, strain Fischer 344, females, in feed, site: liver, lesion: hepatocellular adenoma + hepatocellular carcinoma + neoplastic nodule, dosed 78 weeks, study length 106 weeks) 717 mg/kg/day; (rat, strain Fischer 344, males, in feed, site: thyroid gland, lesion: c-cell carcinoma, dosed 78 weeks, study length 106 weeks) 610 mg/kg/day (inactive).

Regarding `Cl[C@@H]1OCCO[C@H]1Cl`, under “mouse, strain Ha/ICR, females, i.p., site: lung, lesion: papillary tumor, dosed 64 weeks, study length 64 weeks”, the TD50 was determined as 7.04 mg/kg/day.

`Cc1ccc(N=C=O)cc1N=C=O`: the TD50 was 580 mg/kg/day (mouse, strain B6C3F1, females, by gavage, site: abdominal cavity + liver + ovary + spleen + subcutaneous tissue, lesion: hemangiosarcoma + hemangioma, dosed 105 weeks, study length 107 weeks); 181 mg/kg/day (mouse, strain B6C3F1, females, by gavage, site: abdominal cavity + liver + ovary + spleen + subcutaneous tissue, lesion: hemangiosarcoma + hepatocellular adenoma + hemangioma, dosed 105 weeks, study length 107 weeks); 1200 mg/kg/day (mouse, strain B6C3F1, females, by gavage, site: abdominal cavity + liver + ovary, lesion: hemangiosarcoma, dosed 105 weeks, study length 107 weeks); 305 mg/kg/day (mouse, strain B6C3F1, females, by gavage, site: any site (literature study), lesion: several types, types named in the paper, dosed 105 weeks, study length 107 weeks); 215 mg/kg/day (mouse, strain B6C3F1, females, by gavage, site: liver, lesion: hepatocellular adenoma + hepatocellular carcinoma + neoplastic nodule, dosed 105 weeks, study length 107 weeks); 215 mg/kg/day (mouse, strain B6C3F1, females, by gavage, site: liver, lesion: hepatocellular adenoma + hepatocellular carcinoma, dosed 105 weeks, study length 107 weeks). The TD50 is, setting by setting: (mouse, strain B6C3F1, females, by gavage, site: liver, lesion: hepatocellular adenoma, dosed 105 weeks, study length 107 weeks) 250 mg/kg/day; (mouse, strain B6C3F1, females, by gavage, site: lung, lesion: alveolar/bronchiolar adenoma + alveolar/bronchiolar carcinoma, dosed 105 weeks, study length 107 weeks) 815 mg/kg/day; (mouse, strain B6C3F1, males, by gavage, site: any site (literature study), lesion: several types, types named in the paper, dosed 105 weeks, study length 107 weeks) 253 mg/kg/day (inactive); (mouse, strain B6C3F1, males, by gavage, site: lung, lesion: alveolar/bronchiolar adenoma + alveolar/bronchiolar carcinoma, dosed 105 weeks, study length 107 weeks) 1920 mg/kg/day; (mouse, strain Charles River CD1, males, inhaled, site: any site (literature study), lesion: several types, types named in the paper, dosed 104 weeks, study length 104 weeks) 1.63 mg/kg/day (inactive); (mouse, strain Charles River CD1, males, inhaled, site: lung, lesion: adenoma, dosed 104 weeks, study length 104 weeks) 0.3 mg/kg/day (inactive). Further, the TD50 is, setting by setting: (rat, strain Charles River CD (Sprague-Dawley), females, inhaled, site: any site (literature study), lesion: malignant tumor, dosed 108 weeks, study length 108 weeks) 1.09 mg/kg/day (inactive); (rat, strain Charles River CD (Sprague-Dawley), females, inhaled, site: liver, lesion: hepatocellular carcinoma, dosed 108 weeks, study length 108 weeks) 8.24 mg/kg/day (inactive); (rat, strain Charles River CD (Sprague-Dawley), males, inhaled, site: any site (literature study), lesion: malignant tumor, dosed 110 weeks, study length 110 weeks) 6.18 mg/kg/day (inactive); (rat, strain Fischer 344, females, by gavage, site: adrenal gland, lesion: cortical adenoma, dosed 106 weeks, study length 108 weeks) 174 mg/kg/day; (rat, strain Fischer 344, females, by gavage, site: adrenal gland, lesion: pheochromocytoma, dosed 106 weeks, study length 108 weeks) 143 mg/kg/day; (rat, strain Fischer 344, females, by gavage, site: any site (literature study), lesion: several types, types named in the paper, dosed 106 weeks, study length 108 weeks) 25.1 mg/kg/day. For the same compound, the TD50 is, setting by setting: (rat, strain Fischer 344, females, by gavage, site: clitoral gland, lesion: adenoma, NOS, dosed 106 weeks, study length 108 weeks) 260 mg/kg/day; (rat, strain Fischer 344, females, by gavage, site: liver + mammary gland + pancreatic islets + subcutaneous tissue, lesion: neoplastic nodule + fibroadenoma + islet-cell adenoma + fibrosarcoma + fibroma, dosed 106 weeks, study length 108 weeks) 25.4 mg/kg/day; (rat, strain Fischer 344, females, by gavage, site: liver, lesion: hepatocellular adenoma + hepatocellular carcinoma + neoplastic nodule, dosed 106 weeks, study length 108 weeks) 92.2 mg/kg/day; (rat, strain Fischer 344, females, by gavage, site: liver, lesion: neoplastic nodule, dosed 106 weeks, study length 108 weeks) 92.2 mg/kg/day; (rat, strain Fischer 344, females, by gavage, site: mammary gland, lesion: fibroadenoma, dosed 106 weeks, study length 108 weeks) 33.4 mg/kg/day; (rat, strain Fischer 344, females, by gavage, site: pancreatic islets, lesion: islet-cell adenoma + islet-cell carcinoma, dosed 106 weeks, study length 108 weeks) 115 mg/kg/day. The TD50 was 135 mg/kg/day (rat, strain Fischer 344, females, by gavage, site: pancreatic islets, lesion: islet-cell adenoma, dosed 106 weeks, study length 108 weeks); 86.9 mg/kg/day (rat, strain Fischer 344, females, by gavage, site: pituitary gland, lesion: chromophobe adenoma + chromophobe carcinoma, dosed 106 weeks, study length 108 weeks); 77.3 mg/kg/day (rat, strain Fischer 344, females, by gavage, site: pituitary gland, lesion: chromophobe adenoma, dosed 106 weeks, study length 108 weeks); 256 mg/kg/day (rat, strain Fischer 344, females, by gavage, site: subcutaneous tissue, lesion: fibroma, dosed 106 weeks, study length 108 weeks); 206 mg/kg/day (rat, strain Fischer 344, females, by gavage, site: subcutaneous tissue, lesion: fibrosarcoma + fibroma, dosed 106 weeks, study length 108 weeks); 18.4 mg/kg/day (rat, strain Fischer 344, males, by gavage, site: any site (literature study), lesion: several types, types named in the paper, dosed 106 weeks, study length 108 weeks). In addition, the TD50 by setting is: (rat, strain Fischer 344, males, by gavage, site: liver, lesion: hepatocellular adenoma + hepatocellular carcinoma + neoplastic nodule, dosed 106 weeks, study length 108 weeks) 196 mg/kg/day; (rat, strain Fischer 344, males, by gavage, site: pancreas + subcutaneous tissue, lesion: acinar-cell adenoma + fibrosarcoma + fibroma, dosed 106 weeks, study length 108 weeks) 27.3 mg/kg/day; (rat, strain Fischer 344, males, by gavage, site: pancreas, lesion: acinar-cell adenoma, dosed 106 weeks, study length 108 weeks) 51.6 mg/kg/day; (rat, strain Fischer 344, males, by gavage, site: pancreatic islets, lesion: islet-cell adenoma + islet-cell carcinoma, dosed 106 weeks, study length 108 weeks) 201 mg/kg/day; (rat, strain Fischer 344, males, by gavage, site: pituitary gland, lesion: chromophobe adenoma + chromophobe carcinoma, dosed 106 weeks, study length 108 weeks) 83.7 mg/kg/day; (rat, strain Fischer 344, males, by gavage, site: pituitary gland, lesion: chromophobe adenoma, dosed 106 weeks, study length 108 weeks) 76.4 mg/kg/day. Besides, the TD50 is 56 mg/kg/day (rat, strain Fischer 344, males, by gavage, site: subcutaneous tissue, lesion: fibroma, dosed 106 weeks, study length 108 weeks); 34.1 mg/kg/day (rat, strain Fischer 344, males, by gavage, site: subcutaneous tissue, lesion: fibrosarcoma + fibroma, dosed 106 weeks, study length 108 weeks); 103 mg/kg/day (rat, strain Fischer 344, males, by gavage, site: subcutaneous tissue, lesion: fibrosarcoma + osteosarcoma + sarcoma, NOS, dosed 106 weeks, study length 108 weeks); 92.4 mg/kg/day (rat, strain Fischer 344, males, by gavage, site: subcutaneous tissue, lesion: fibrosarcoma, dosed 106 weeks, study length 108 weeks); 13.6 mg/kg/day (rat, strain Fischer 344, males, by gavage, site: testis, lesion: interstitial-cell tumor + interstitial-cell tumor, malignant, dosed 106 weeks, study length 108 weeks). In addition, the carcinogen call reads like this: (mouse, strain Charles River CD1, females, inhaled, site: any site (literature study), lesion: benign tumor, dosed 104 weeks, study length 104 weeks) “negative (inactive)”; (mouse, strain Charles River CD1, females, inhaled, site: any site (literature study), lesion: malignant tumor, dosed 104 weeks, study length 104 weeks) “negative (inactive)”; (mouse, strain Charles River CD1, females, inhaled, site: any site (literature study), lesion: several types, types named in the paper, dosed 104 weeks, study length 104 weeks) “negative (inactive)”; (mouse, strain Charles River CD1, females, inhaled, site: liver, lesion: hepatocellular adenoma, dosed 104 weeks, study length 104 weeks) “negative (inactive)”; (mouse, strain Charles River CD1, females, inhaled, site: liver, lesion: hepatocellular carcinoma, dosed 104 weeks, study length 104 weeks) “negative (inactive)”; (mouse, strain Charles River CD1, females, inhaled, site: lung, lesion: adenoma, dosed 104 weeks, study length 104 weeks) “negative (inactive)”. For the same compound, the carcinogen call was “negative (inactive)” (mouse, strain Charles River CD1, females, inhaled, site: lung, lesion: carcinoma, dosed 104 weeks, study length 104 weeks); “negative (inactive)” (mouse, strain Charles River CD1, males, inhaled, site: any site (literature study), lesion: benign tumor, dosed 104 weeks, study length 104 weeks); “negative (inactive)” (mouse, strain Charles River CD1, males, inhaled, site: any site (literature study), lesion: malignant tumor, dosed 104 weeks, study length 104 weeks); “negative (inactive)” (mouse, strain Charles River CD1, males, inhaled, site: liver, lesion: hepatocellular adenoma, dosed 104 weeks, study length 104 weeks); “negative (inactive)” (mouse, strain Charles River CD1, males, inhaled, site: liver, lesion: hepatocellular carcinoma, dosed 104 weeks, study length 104 weeks); “negative (inactive)” (mouse, strain Charles River CD1, males, inhaled, site: lung, lesion: carcinoma, dosed 104 weeks, study length 104 weeks). Besides, the carcinogen call runs as follows: (rat, strain Charles River CD (Sprague-Dawley), females, inhaled, site: any site (literature study), lesion: benign tumor, dosed 108 weeks, study length 108 weeks) “negative (inactive)”; (rat, strain Charles River CD (Sprague-Dawley), females, inhaled, site: any site (literature study), lesion: several types, types named in the paper, dosed 108 weeks, study length 108 weeks) “negative (inactive)”; (rat, strain Charles River CD (Sprague-Dawley), males, inhaled, site: any site (literature study), lesion: benign tumor, dosed 110 weeks, study length 110 weeks) “negative (inactive)”; (rat, strain Charles River CD (Sprague-Dawley), males, inhaled, site: any site (literature study), lesion: several types, types named in the paper, dosed 110 weeks, study length 110 weeks) “negative (inactive)”; (rat, strain Charles River CD (Sprague-Dawley), males, inhaled, site: liver, lesion: hepatocellular carcinoma, dosed 110 weeks, study length 110 weeks) “negative (inactive)”.
